Where two headings read alike, the source gives them in different places.
Experiments:
[1] = system: Polθ-pol; design: method as in Zatreanu 2021, Stockley 2022, Bubenik 2022, Fried 2024; settings: Figures 1 and 2A; ref Zatreanu 2021, Stockley 2022, Bubenik 2022, Fried 2024; read-out: IC50 (Polθ-pol) of representative / previous Polθ-pol inhibitors; cited from earlier work
[2] = system: BRCA2^-/- HCT116; assay: Clonogenic (colony) survival assay; assay type: cell-based, human; settings: Homo sapiens
Experimental: (§1) Colony survival assays were performed on 24-well plates. 800 cells/well of HCT, DLD1- BRCA2 −/–, PALB2 −/–, MEF BRCA1 […], PEO1, SNU-601, SKOV3- BRCA2 −/–, OVCAR8 cells and 200 cells/well of HCT, DLD1, MEF, SKOV3 wildtype cells were plated. For MDA pair, 500 cells/well of MDA436 and 100 cells of MDA231 were plated. Cells were treated with the compound 24 h after plating and the medium was replaced every two or 3 days until the colonies were ready for staining. Colonies were typically ready for staining in 10–12 days. For staining: Medium was removed from plates, and cells were rinsed with PBS. Fixation was carried out with Water:Ethanol:Acetic acid (5:4:1) for 30 min followed by staining of colonies with 0.5% crystal violet in Water:Ethanol (3:2) for 2 h at room temperature. The plates were rinsed with water and left for drying overnight at room temperature. Colonies were then counted manually, and response curves are shown as mean colony formation ± SEM. IC50 was calculated with GraphPad Prism using nonlinear regression analysis, inhibitor vs response (variable slope) equation.

[3] = system: BRCA2^+/+ HCT116; assay: Clonogenic (colony) survival assay; assay type: cell-based; settings: Homo sapiens
Experimental: as §1

[4] = design: method as in Fried 2024; settings: Figure 2A, matrix not printed there (liver microsomes); ref Fried 2024; cited from earlier work
[5] = Plasma protein binding (species not given); assay type: in vitro ADME
Excerpt: 3 Dimethylamine Side-Chain Increases Oral Bioavailability | column: Plasma protein binding (%)

[6] = Pharmacokinetics in CD-1 mice; assay type: in vivo; settings: for bioavailability / Cmax / Tmax / AUC(0-t) / half-life: male, mouse, plasma; for AUC(0-t): read-out: AUClast (PO); for half-life: read-out: T1/2 (PO) (converted)
Experimental: For the pharmacokinetics study, CD-1 male mice (6–8 weeks) were dosed by IV or PO at the indicated concentrations of the indicated compounds dissolved in 5% DMSO, 5% ethanol, 20% TPGS, 30% PEG400, 40% water. Plasma samples were collected at the indicated time points and the indicated compound levels were determined by using standard protocols with a calibration curve and LC/MS. The pharmacokinetic studies was carried out by Pharmaron.

[7] = Liver microsome stability; assay type: in vitro ADME
Experimental: Liver microsome membranes stability assay. Assays were conducted in 96-well (1 mL) polypropylene plates. In duplicate, test compounds (1 μM) were incubated in 0.5 mL of 100 mM potassium phosphate buffer (pH 7.4) with 0.5 mg/mL pooled liver microsomes from the test species (Gibco; mouse, CD1, male, MSMCPL; rat, Sprague-Dawley, male, RTMCPL; dog, Beagle, male, DGMCPL; human, mixed gender, HMMCPL), 2 mM tetrasodium NADPH and 3 mM MgCl2 for 60 min in a Labnet Vortemp incubator at 37 °C with gentle shaking. At five time points, […] of reaction mixtures were transferred to a 96-shallow-well stop plate on ice containing […] acetonitrile with 0.05 mM propafenone (internal standard). […] Verapamil was the positive reference compound (typical T1/2 = 3 min). Standard curves for test compounds were generated using 5 concentrations in duplicate. Stop plates were centrifuged at 2270 × g for 10 min and […] of the supernatants were transferred to a Waters Acquity UPLC […] 96-well sample plate, sealed with a cap mat and analyzed by UPLC/MS as described. GraphPad Prism v 5.04 was used for nonlinear fitting of time course data to generate T1/2 (min) and in vitro Clint (μL/min/mg) values.

[8] = LogP; assay type: physicochemical; settings: method not described
Excerpt: 1 Dimethyl and Monomethyl Side-Chains Improve Metabolic Stability and Cellular Potency | column: LogP

[9] = target: T1, recombinant human Polθ-pol (Homo sapiens, UniProt O75417); assay: Fluorescent-based IC50 DNA synthesis assay; assay type: biochemical; settings: n=3
T1 construct: purified recombinant human Polθ-pol (comprising amino acid residues 1792–2590); made in house
T1 sequence (O75417 1792-2590): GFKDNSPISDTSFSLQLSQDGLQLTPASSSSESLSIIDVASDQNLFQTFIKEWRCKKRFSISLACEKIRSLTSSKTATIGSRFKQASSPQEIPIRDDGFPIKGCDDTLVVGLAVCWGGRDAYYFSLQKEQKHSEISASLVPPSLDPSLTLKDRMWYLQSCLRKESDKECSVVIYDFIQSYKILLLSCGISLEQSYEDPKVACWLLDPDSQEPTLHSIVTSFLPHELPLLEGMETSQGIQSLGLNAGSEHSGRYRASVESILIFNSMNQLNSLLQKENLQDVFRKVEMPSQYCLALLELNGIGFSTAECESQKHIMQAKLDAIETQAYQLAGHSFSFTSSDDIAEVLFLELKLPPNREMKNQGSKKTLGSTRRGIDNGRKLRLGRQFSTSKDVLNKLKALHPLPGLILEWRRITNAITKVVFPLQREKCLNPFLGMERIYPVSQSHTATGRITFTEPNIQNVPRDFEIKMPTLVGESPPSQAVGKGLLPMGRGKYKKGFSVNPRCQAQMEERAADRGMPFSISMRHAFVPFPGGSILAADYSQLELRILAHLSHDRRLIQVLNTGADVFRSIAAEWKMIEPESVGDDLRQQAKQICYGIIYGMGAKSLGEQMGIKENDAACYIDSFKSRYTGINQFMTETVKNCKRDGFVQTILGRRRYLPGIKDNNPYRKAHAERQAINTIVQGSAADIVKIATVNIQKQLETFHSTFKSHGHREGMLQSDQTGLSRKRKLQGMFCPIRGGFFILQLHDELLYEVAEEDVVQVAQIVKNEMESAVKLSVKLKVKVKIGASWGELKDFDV
Experimental: The biochemical Polθ-pol IC50 assay was developed in a prior report. Briefly, 60 nM of the preannealed primer-template containing a 5′ Cy5 fluorophore-conjugated template strand (RP486-Cy5), a downstream complementary oligo conjugated with a 3′ Iowa BlackReg Dark quencher (RP343BHQRQ) and a primer strand (RP469D) was mixed with 50 μM 2’-deoxyribonucleoside triphosphates (dNTPs), 0.1 mg/mL bovine serum albumin (BSA), 0.01% NP-40, 10% glycerol, 1 mM dithiothreitol (DTT), 10 mM MgCl2, 25 mM TrisHCl pH 7.8 in the presence of 2.5% DMSO with or without various concentrations (7-point dilution series) of Polθ-pol small-molecule inhibitors at 37 °C in a volume of 40 μL. The reactions were initiated by the addition of 5 nM of purified recombinant human Polθ-pol (comprising amino acid residues 1792–2590). The reactions were terminated by the addition of 20 mM EDTA after 18 min, and the Cy5 fluorescence intensity was measured using a CLARIOstar (BMG Labtech) plate reader. Reactions were performed in triplicate and the % inhibition at each concentration of the respective compound was based on the mean.

[10] = Mouse plasma protein binding; assay type: in vitro ADME
Excerpt: 4 In Vitro ADME and Potency of Chiral Derivatives | column: Mouse plasma protein binding (% free)

[11] = HCT-116, clonogenic survival, two experiments in triplicate, read-out: IC50(nM) HCT116 BRCA2 –/–
[12] = HCT-116, clonogenic survival, two experiments in triplicate, read-out: IC50(nM) HCT116 BRCA2 +/+
[13] = HCT-116, read-out: IC50 BRCA2^-/- HCT116 (μM)
[14] = male, CD1, pH 7.4, mouse liver microsomes, read-out: T1/2 mouse liver microsomes
[15] = HCT-116, read-out: IC50 BRCA2^+/+ HCT116 (μM)
[16] = both sexes, pH 7.4, human liver microsomes, read-out: Clint (uL/min/ mg) human
[17] = both sexes, pH 7.4, human liver microsomes, read-out: T1/2 human liver microsomes
[18] = male, CD1, pH 7.4, mouse liver microsomes, read-out: Clint (uL/min /mg) mouse

## Cc1cccc(N(C)C(=O)[C@@H]2[C@H](O)CCN2c2nc(C)cc(C(F)(F)F)c2C#N)c1 [ART558, reference compound]
[1]
  IC50: 7.9 nM
[2]; [11]
  IC50: 1040 nM
[3]; [12]
  IC50: > 1280 nM

## Cc1cc(C(F)(F)F)cc(N2C(=O)[C@@H](O)[C@@H](O)[C@H]2C(=O)N(C)c2ccc(F)c(Cl)c2)n1 [ART812, reference compound]
[1]
  IC50: 7.6 nM
[2]; [11]
  IC50: 454 nM
[3]; [12]
  IC50: > 1280 nM

## CN(C(=O)Oc1c(Cl)cc(Cl)c2cccnc12)c1ccccc1 [MC2800003]
[1]
  IC50: 160 nM
[4]
  t1/2 of previous Polθi: < 2 min

## Nc1ccc(C#CCN(C(=O)Cc2ncc(C(F)(F)F)cc2C(F)(F)F)c2ccc(F)cc2)nn1 [RP-6685, reference compound]
[1]
  IC50: 5.8 nM
[2]; [11]
  IC50: 403 nM
[3]; [12]
  IC50: > 1280 nM

## CN1CCN(c2cc(C(F)(F)F)cc(C(F)(F)F)c2OC(=O)N(C)c2ccc(F)cc2)C1=O [RTx-152]
[1]
  IC50: 6.2 nM
[4]
  t1/2 of previous Polθi: < 2 min

## CN(C)CC(O)CN1CCN(c2cc(C(F)(F)F)cc(C(F)(F)F)c2OC(=O)N(C)c2ccc(F)cc2)C1=O (centres unmarked) [RTx-182, 2-{3-[3-(Dimethylamino)-2-hydroxypropyl]-2-oxoimidazolidin-1-yl}-4,6-bis(trifluoromethyl)phenyl N-(4-fluorophenyl)-N-methylcarbamate]
[5]
  fraction unbound: 0.133
[6]; 5 mg/kg IV, 15 mg/kg PO (n=3)
  bioavailability: 93%
[6]; 15 mg/kg PO (n=3)
  Cmax: 512 ng/mL
  Tmax: 79.8 min
  AUC(0-t): 4070 ng·h/mL
  half-life: 142 min
[2]; [13]
  IC50: 860 nM
[7]; [14]
  half-life at 1 μM: 7.9 min
[8]
  logP: 3.7
[3]; [15]
  IC50: 5400 nM
[9]
  IC50: 6.7 nM

## CNCC(O)CN1CCN(c2cc(C(F)(F)F)cc(C(F)(F)F)c2OC(=O)N(C)c2ccc(F)cc2)C1=O (centres unmarked) [RTx-290, 2-(3-(2-Hydroxy-3-(methylamino)propyl)-2-oxoimidazolidin-1-yl)-4,6-bis(trifluoromethyl)phenyl (4-fluorophenyl)(methyl)carbamate]
[5]
  fraction unbound: 0.064
[6]; 10 mg/kg IV, 10 mg/kg PO (n=3)
  bioavailability: 53.3%
[6]; 10 mg/kg PO (n=3)
  Cmax: 436 ng/mL
  Tmax: 40.2 min
  AUC(0-t): 2050 ng·h/mL
  half-life: 194 min
[2]; [13]
  IC50: 110 nM
[7]; [14]
  half-life at 1 μM: 56.9 min
[8]
  logP: 3.3
[3]; [15]
  IC50: 8400 nM
[9]
  IC50: 5.1 nM

## [2H]C([2H])([2H])N(C(=O)Oc1c(N2CCN(C[C@@H](O)CN(C)C)C2=O)cc(C(F)(F)F)cc1C(F)(F)F)c1ccc(F)cc1 [RTx-302, 2-{3-[(2S)-3-(Dimethylamino)-2-hydroxypropyl]-2-oxoimidazolidin-1-yl}-4,6-bis(trifluoromethyl)phenyl N-(4-fluorophenyl)-N-(methyl-d3)-carbamate]
[6]; 15 mg/kg IV, 50 mg/kg PO (n=3)
  bioavailability: 107%
[6]; 50 mg/kg PO (n=3)
  Cmax: 2170 ng/mL
  Tmax: 78 min
  AUC(0-t): 24200 ng·h/mL
  half-life: 120 min
[6]; parent compound, 50 mg/kg PO (n=3)
  Avg. free unbound exposure: 71 nM/h
[7]; [16]
  microsomal CLint at 1 μM: 114 µL/min/mg
[7]; [17]
  half-life at 1 μM: 12.5 min
[7]; [18]
  microsomal CLint at 1 μM: 209 µL/min/mg
[7]; [14]
  half-life at 1 μM: 6.9 min
[10]
  Mouse plasma protein binding (% free): 4.0 % free
[9]
  IC50: 7.5 nM

## [2H]C([2H])([2H])N(C(=O)Oc1c(N2CCN(C[C@@H](O)CNC)C2=O)cc(C(F)(F)F)cc1C(F)(F)F)c1ccc(F)cc1 [RTx-314]
[7]; [16]
  microsomal CLint at 1 μM: < 23 µL/min/mg
[7]; [17]
  half-life at 1 μM: > 60 min
[7]; [18]
  microsomal CLint at 1 μM: 26.7 µL/min/mg
[7]; [14]
  half-life at 1 μM: > 50 min
[10]
  Mouse plasma protein binding (% free): 3.1 % free
[9]
  IC50: 6.6 nM

Reference: PMC12621202, “RTx-303, an Orally Bioavailable Polθ Polymerase Inhibitor That Potentiates PARP Inhibitors in BRCA Mutant Tumors” (Journal of Medicinal Chemistry, 2025)
